Assay results from patent US9695330B2, “Liquid composition, pigment dispersion liquid, and aqueous ink composition for ink jet recording” (Seiko Epson Corporation, priority 2015, dated 2017).

experiment: Distribution coefficient of water-octanol (logP), OECD Test Guideline 107; assay type: physicochemical; settings: not given

Row | Structure (SMILES) | logP | logP (distribution coefficient of water-octanol)
1 | CCCCC(CC)COCC(O)CO (stereo not shown) [3-(2-ethylhexyloxy)-1,2-propanediol] | 2.53 | –
2 | CCCCCC(=O)OCC(O)CO (stereo not shown) [hexanoic acid 2,3-dihydroxypropyl] | – | 0.85
3 | CCCC(=O)OCC(O)CO (stereo not shown) [butyric acid 2,3-dihydroxypropyl] | – | -0.21
4 | C=C(C)C(=O)OCC(O)CO (stereo not shown) [methacrylic acid 2,3-dihydroxypropyl] | – | −0.12
5 | CCC(=O)OCC(O)CO (stereo not shown) [propionic acid 2,3-dihydroxypropyl] | – | −0.75

same assay, conditions: octanol/water

Row | Structure (SMILES) | logP
6 | CCCCOCC(O)CO (stereo not shown) [3-butoxy-1,2-propanediol] | 0.59
7 | CCCCCOCC(O)CO (stereo not shown) [3-pentyloxy-1,2-propanediol] | 0.9
8 | CC1CCC(C(C)C)C(OCC(O)CO)C1 (stereo not shown) [3-menthyloxy-1,2-propanediol] | 2.6
9 | OCC(O)COC1CCCCC1 (stereo not shown) [3-cyclohexyloxy-1,2-propanediol] | 1
10 | CC(=O)OCC(COC(C)=O)OC(C)=O [glycerol triacetate] | -0.24
11 | CCOCC(O)CO (stereo not shown) [3-ethoxy-1,2-propanediol] | -0.43
12 | COCC(O)CO (stereo not shown) [3-methoxy-1,2-propanediol] | -0.62
13 | CCCCCCOCC(O)CO (stereo not shown) [3-hexyloxy-1,2-propanediol] | 0.36
14 | CC(C)CCOCC(O)CO (stereo not shown) [3-isopentyloxy-1,2-propanediol] | 0.94
15 | C#CCOCC(O)CO (stereo not shown) [3-(2-propynyloxy)-1,2-propanediol] | 0.75
16 | C=CCOCC(O)CO (stereo not shown) [3-allyloxy-1,2-propanediol] | -0.46
